Measurements as given in patent publication US20240024479A1, “NK CELLS OR T CELLS EXPRESSING CHIMERIC HEMATOPOIETIC GROWTH FACTOR RECEPTORS AND METHODS OF USE” (The United States of America, as represented by the …, priority 2020, published 2024).

Key:
c-MPL+ NK-92 cells = assay: In vitro cell expansion of c-MPL+ NK-92 cells; assay type: cell-based, human; details: day 8
Source text: Lentiviral production and transduction: Lentivirus gene expression vectors encoding EGFP-P2A linker-human EPOR or EGFP-P2A-human c-MPL were cloned according to our design by VectorBuilder (TX, USA). Plasmid DNA for the above and pCMV-dR8.2 dvpr and pCMV-VSV-G packaging plasmids was purified using ZymoPUREII-EndoZero plasmid maxiprep kit (Zymo Research, CA). Lentiviral particles were generated with HEK293T cells and Lipofectamine3000 reagent (Thermo Fisher Scientific, MA) following the manufacturers' instructions. Viral supernatant was harvested at 24 and 48 hours, pooled, and concentrated with lenti-X concentrator (Takara Bio, Japan) or by centrifugation at 18,600 rpm for 2 hours at 4° C. […] After 5 days post-transduction, cells were stained and sorted with fluorescence-activated cell sorting (FACS) using a BD FACSAria II to purify GFP^+EPOR^+ and GFP^+c-MPL^+ NK cell populations.
In vitro cell expansion cultures: The NK-92 (5×10^4 cell/ml) and KHYG-1 (1×10^4 cell/ml) cells were cultured in 1 ml of complete medium in 24-well plate. […] Trypan blue negative cells were counted every other day. […] Viable cells were counted and percentage of GFP^+ cells was acquired on indicated days (NK: day 4 and 6, T: day 3 and 6). The fold change of GFP^+ cells was calculated by multiplying the counted cell number times the fraction GFP^+.

721.221 = assay: Flow cytometry based killing assay, c-MPL+ NK-92 effectors vs 721.221; assay type: cell-based, human; details: c-MPL+ NK-92 with TPO administration
Description: (§1) The target cells were labeled with 1 μM cell trace violet in some experiments (Thermo Fisher Scientific). The effector and target cells were incubated together in duplicate wells at specific E:T ratio in complete medium without cytokines for 4 hours (total cell number: 200,000 to 250,000 per well in 96-well plate). 7-AAD and Sphero AccuCount Fluorescent particles (Spherotech, IL) were added before analysis by flow cytometry. The absolute number of viable 7-AAD negative target cells was calculated according to bead numbers added (Cooper et al., Leukemia 32:1970-1983, 2018). The percentage of dead cells was calculated relative to target cell only control wells.

K562 = assay: Flow cytometry based killing assay, c-MPL+ NK-92 effectors vs K562; assay type: cell-based, human; details: c-MPL+ NK-92 with TPO administration
Description: as §1

GFP+ c-MPL+ NK cells = assay: Competitive expansion of c-MPL-transduced primary NK cells; assay type: cell-based, human; details: day 6
Description: (§2) In vitro cell expansion cultures: The NK-92 (5×10^4 cell/ml) and KHYG-1 (1×10^4 cell/ml) cells were cultured in 1 ml of complete medium in 24-well plate. […] Trypan blue negative cells were counted every other day. […] For competitive primary NK and T cell expansion assay, all transduced cells (5×10^5/ml for NK and 4×10^5/ml for T cell) containing a mixture of GFP positive (transduced) and GFP negative (untransduced) cells were plated on day 0. Fresh medium with appropriate supplements was replaced every other day for NK cells and only on day 3 for T cell experiment. Viable cells were counted and percentage of GFP^+ cells was acquired on indicated days (NK: day 4 and 6, T: day 3 and 6). The fold change of GFP^+ cells was calculated by multiplying the counted cell number times the fraction GFP^+.

GFP+ MPL+ NK cells = assay: Degranulation assay and cytokine production, c-MPL-transduced primary NK cells with K562; assay type: cell-based, human
Description: (§3) To examine degranulation, cells were washed after two hours and stained with anti-CD107a (H4A3) (BioLegend). To assay cytokine production, GolgiPlug and GolgiStop (BD Biosciences) were added at manufacturer's recommended concentrations within the first hour of co-culture with K562. After 4 hours, cells were washed and stained for cell surface markers, then stained intracellularly with mAb recognizing TNF-α (Mab 11) and IFN-γ (B27) (BD Biosciences).

[1] = system: untransduced control cells; assay: Degranulation assay and cytokine production, untransduced control cells; assay type: cell-based, human; details: TPO administration
Description: as §3

GFP+ MPL+ cells = assay: Persistence of transduced human NK cells in immunodeficient mice; assay type: in vivo, NSG mice; details: for average percentage of GFP+ MPL+ cells amongst the recovered human cells: TPO 50 μg/kg daily, 4 days, about 10% of injected cells
Source text: Both populations were then mixed at a 1:1 ratio immediately before injection intravenously into NSG mice (such that GFP^+ MPL^+ cells and GFP^+ CD34^+ cells each constituted ˜10% of the mixed cells). Each mouse received 2.2×10^7 total human NK cells. […] MPL-transduced NK cells were identified as GFP^+ MPL^+ while CD34-transduced NK cells were gated as GFP^+ CD34^+. The frequency of transduced cells is presented (FIG. 14A) as a percentage of MHC-I^+ human cells isolated from organs or (FIG. 14B) as percent of total live mononuclear cells recovered from each organ. The legend applies to both FIGS. 14A and 14B. Data from 9 mice per group are shown with NK cells derived from 3 human blood donors. Data was normalized to account for unequal transduction or subset mixing before injection using the equation: […]
Persistence of transduced human NK cells in immunodeficient mice: NK cells from human PBMC were transduced with matched lentiviral vectors encoding GFP/MPL or GFP/CD34 then mixed at a 1:1 ratio and injected intravenously into NSG mice (2.2×10^7 total cells/mouse). […] After euthanasia, blood was drawn by cardiac puncture, bone marrow was harvested by flushing the tibia, and spleen, liver, and lung fragments were processed by grinding over 70 μm nylon mesh. Blood, bone marrow, lung, and spleen samples received 1-2 rounds of 5 minute incubations with ACK lysis buffer (Quality biological). Liver samples were purified by centrifugation over 35% Percoll (Sigma) solution in RPMI. The presence of transduced human cells was quantified in various organs via flow cytometry using antibodies to human MHC class I (W6/32) (BioLegend), c-MPL (1.6.1), CD34 (581) (BD BioSciences), GFP-fluorescence, and Live/Dead Aqua viability dye (Thermo Fisher).

GFP+ MPL+ population = assay: Parallel in vitro cultures of the mixed transduced NK cells; assay type: cell-based, human; details: only TPO
c-MPL transduced T cells = assay: Competitive expansion of c-MPL-transduced primary T cells; assay type: cell-based, human
Description: as §2

[2] = system: c-MPL transduced NK cells; assay: Proliferation of c-MPL-expressing human NK cells with thrombopoietin mimetics; assay type: cell-based; details: 4-5 days culture
Description: FIGS. 16A-16C show proliferation of human NK cells transduced to express GFP and c-MPL cultured for 4-5 days with the indicated concentrations of thrombopoietin (FIG. 16A), romiplostim (FIG. 16B), or eltrombopag (FIG. 16C). […] Mean and SEM of results from 3 blood donors are shown.
NK cells from PBMC from three blood donors were stimulated and transduced to express GFP and c-MPL, then were cultured for 4-5 days with thrombopoietin, romiplostim, or eltrombopag.

TPO: recombinant human thrombopoietin, ligand of the c-MPL receptor; 50 ng/ml rhTPO (R&D)
fold expansion of c-MPL+ NK-92 cells (c-MPL+ NK-92 cells; TPO alone): 7 fold | fold expansion of c-MPL+ NK-92 cells (c-MPL+ NK-92 cells; TPO plus 1 U/ml IL-2): 23.25 fold | killing of 721.221 tumor targets (721.221): no significant killing augmentation | killing of K562 tumor targets (K562): no significant killing augmentation | fold change of GFP+ c-MPL+ NK cells (GFP+ c-MPL+ NK cells; TPO plus 10 U/ml LD IL-2): 24.3 fold | fold change of GFP+ c-MPL+ NK cells (GFP+ c-MPL+ NK cells; TPO+25 U/ml IL-2): 34.1 fold | degranulation in GFP+ MPL+ NK cells (CD107a) (GFP+ MPL+ NK cells; TPO added to 25 U/ml IL-2, 4 days, K562 1:1): 83% | percent of GFP MPL transduced NK cells that produced IFN-γ or TNF-α (GFP+ MPL+ NK cells; TPO added to 25 U/ml IL-2 vs 25 U/ml IL-2 alone, co-cultured with K562): considerably augmented | degranulation or cytokine production of untransduced control cells [1]: no measured effects | GFP+ MPL+ cells as percentage of total live cells from each organ, vs GFP+ CD34+ control cells (GFP+ MPL+ cells; TPO-treated mice): significantly more | average percentage of GFP+ MPL+ cells amongst the recovered human cells (GFP+ MPL+ cells; blood and spleen): 15% | average percentage of GFP+ MPL+ cells amongst the recovered human cells (GFP+ MPL+ cells; liver and lung): 20% | GFP+ MPL+ population in parallel cultures (GFP+ MPL+ population): 31% | GFP fold-expansion of c-MPL transduced T cells (c-MPL transduced T cells; D6, TPO alone): 5.96 fold | GFP fold-expansion of c-MPL+ activated T cells (c-MPL transduced T cells; day 6, TPO plus LD IL-2): 11.39 fold | proliferation of c-MPL transduced NK cells [2]: induce proliferation
